Laboratory results reported in patent US10227342B2 (ARIAD PHARMACEUTICALS, INC., priority 2014, dated 2019).

Key:
Assay type in all cases: cell-based
[1] = target: human EGFR exon 20 insertion NPG (H773_V774insNPG) (Homo sapiens, UniProt P00533, INS773NPG, cells depend on it); test: Ba/F3-EGFR-Exon20-NPG cell anti-proliferative assay (CellTiter 96 MTS, 72 h); conditions: read-out: EGFR exon 20 NPG insertion IC50
Experimental: Ba/F3 cells expressing EGFR exon 20 insertions (named Ba/F3-EGFR-Exon20-NPG or Ba/F3-EGFR-Exon20-ASV) can proliferate in the absence of IL-3. The anti-proliferative activity of compounds were determined as follows: BaF3-EGFR-Exon20 cells (NPG or ASV) seeded in 96 well plates (2500 cells/well) were treated with test compound (dissolved in DMSO) at a series of concentrations (4-fold dilution, top concentration: 10,000 nM). The plates were incubated for 72 h in a 37° C. incubator with 5% CO2, and the number of viable cells in each well were measured indirectly by CellTiter 96® Aqueous One Solution Cell Proliferation Assay (Promega) This assay is a colorimetric method for determining the number of viable cells through measurement of their metabolic activity by detection of enzymatic conversion of tetrazolium salts into blue formazan derivatives. Reagent (20 μL) was added into each well, and the plates were returned to the incubator for 2 h. The absorbance in each well was then measured at 490 nm using an Envision plate reader (Perkin Elmer).

[2] = target: human EGFR E746-A750 deletion and T790M Mutation (DT) (Homo sapiens (Human), UniProt P00533, DEL746-750/T790M); test: Ba/F3-EGFR-Del/T790M cell anti-proliferative assay (CellTiter 96 MTS, 72 h); conditions: Ba/F3-EGFR-Del/T790M cells; for IC50: read-out: EGFR exon 19 deletion and T790M mutation IC50
[3] = target: Her2 exon 20 YVMA insertion (A775_G776ins YVMA) (Homo sapiens (Human), UniProt P04626, INS775YVMA); test: Ba/F3-Her2 Exon20 YVMA cell anti-proliferative assay (CellTiter 96 MTS, 72 h); conditions: Ba/F3-Her2 Exon20 YVMA cells
Source text: Ba/F3 cells expressing Her2 Exon20 YVMA insertions (named Ba/F3-Her2 Exon20 YVMA) can proliferate in the absence of IL-3.

[4] = target: human EGFR exon 20 insertion ASV (V769_D770insASV) (Homo sapiens (Human), UniProt P00533, INS769ASV); test: Ba/F3-EGFR-Exon20-ASV cell anti-proliferative assay (CellTiter 96 MTS, 72 h); conditions: Ba/F3-EGFR-Exon20-ASV cells;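 also: Ba/F3 cells bearing the EGFR exon 20 ASV insertion, a line able to proliferate without IL-3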
human EGFR exon 20 insertion ASV (V769_D770insASV), sequence (P00533 other isoform, or with tags, fused parts or gaps ins ASV behind 769): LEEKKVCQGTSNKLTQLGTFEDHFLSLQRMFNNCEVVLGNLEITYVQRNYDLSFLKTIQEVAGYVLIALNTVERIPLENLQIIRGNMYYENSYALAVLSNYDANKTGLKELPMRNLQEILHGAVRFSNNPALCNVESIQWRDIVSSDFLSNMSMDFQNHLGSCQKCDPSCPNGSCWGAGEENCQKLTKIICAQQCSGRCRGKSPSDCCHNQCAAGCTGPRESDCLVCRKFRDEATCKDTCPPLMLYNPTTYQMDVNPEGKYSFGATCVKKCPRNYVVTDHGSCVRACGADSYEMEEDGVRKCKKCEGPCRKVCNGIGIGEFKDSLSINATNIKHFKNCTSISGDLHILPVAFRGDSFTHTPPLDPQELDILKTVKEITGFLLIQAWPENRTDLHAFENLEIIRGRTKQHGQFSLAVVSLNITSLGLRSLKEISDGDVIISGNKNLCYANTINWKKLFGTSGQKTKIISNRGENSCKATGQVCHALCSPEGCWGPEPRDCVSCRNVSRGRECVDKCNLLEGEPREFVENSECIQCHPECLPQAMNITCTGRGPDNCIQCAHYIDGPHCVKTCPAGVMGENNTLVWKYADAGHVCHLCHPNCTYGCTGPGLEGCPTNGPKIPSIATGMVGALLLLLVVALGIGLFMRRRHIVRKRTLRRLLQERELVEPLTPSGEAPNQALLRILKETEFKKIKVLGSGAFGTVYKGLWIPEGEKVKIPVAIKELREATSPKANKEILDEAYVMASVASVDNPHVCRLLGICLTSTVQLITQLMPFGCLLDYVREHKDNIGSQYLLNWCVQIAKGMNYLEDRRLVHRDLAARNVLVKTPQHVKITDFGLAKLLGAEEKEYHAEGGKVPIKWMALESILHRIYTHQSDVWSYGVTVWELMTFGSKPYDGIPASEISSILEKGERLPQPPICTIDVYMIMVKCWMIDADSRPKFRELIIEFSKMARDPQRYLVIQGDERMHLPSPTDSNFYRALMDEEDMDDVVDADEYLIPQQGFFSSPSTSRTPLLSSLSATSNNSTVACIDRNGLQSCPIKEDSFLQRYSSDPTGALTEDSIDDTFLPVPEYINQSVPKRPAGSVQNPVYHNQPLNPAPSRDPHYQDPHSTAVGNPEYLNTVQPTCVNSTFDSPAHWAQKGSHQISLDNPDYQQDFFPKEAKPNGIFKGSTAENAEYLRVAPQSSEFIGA

human EGFR E746-A750 deletion and T790M Mutation (DT), sequence (P00533 other isoform, or with tags, fused parts or gaps T790M/del E746-A750): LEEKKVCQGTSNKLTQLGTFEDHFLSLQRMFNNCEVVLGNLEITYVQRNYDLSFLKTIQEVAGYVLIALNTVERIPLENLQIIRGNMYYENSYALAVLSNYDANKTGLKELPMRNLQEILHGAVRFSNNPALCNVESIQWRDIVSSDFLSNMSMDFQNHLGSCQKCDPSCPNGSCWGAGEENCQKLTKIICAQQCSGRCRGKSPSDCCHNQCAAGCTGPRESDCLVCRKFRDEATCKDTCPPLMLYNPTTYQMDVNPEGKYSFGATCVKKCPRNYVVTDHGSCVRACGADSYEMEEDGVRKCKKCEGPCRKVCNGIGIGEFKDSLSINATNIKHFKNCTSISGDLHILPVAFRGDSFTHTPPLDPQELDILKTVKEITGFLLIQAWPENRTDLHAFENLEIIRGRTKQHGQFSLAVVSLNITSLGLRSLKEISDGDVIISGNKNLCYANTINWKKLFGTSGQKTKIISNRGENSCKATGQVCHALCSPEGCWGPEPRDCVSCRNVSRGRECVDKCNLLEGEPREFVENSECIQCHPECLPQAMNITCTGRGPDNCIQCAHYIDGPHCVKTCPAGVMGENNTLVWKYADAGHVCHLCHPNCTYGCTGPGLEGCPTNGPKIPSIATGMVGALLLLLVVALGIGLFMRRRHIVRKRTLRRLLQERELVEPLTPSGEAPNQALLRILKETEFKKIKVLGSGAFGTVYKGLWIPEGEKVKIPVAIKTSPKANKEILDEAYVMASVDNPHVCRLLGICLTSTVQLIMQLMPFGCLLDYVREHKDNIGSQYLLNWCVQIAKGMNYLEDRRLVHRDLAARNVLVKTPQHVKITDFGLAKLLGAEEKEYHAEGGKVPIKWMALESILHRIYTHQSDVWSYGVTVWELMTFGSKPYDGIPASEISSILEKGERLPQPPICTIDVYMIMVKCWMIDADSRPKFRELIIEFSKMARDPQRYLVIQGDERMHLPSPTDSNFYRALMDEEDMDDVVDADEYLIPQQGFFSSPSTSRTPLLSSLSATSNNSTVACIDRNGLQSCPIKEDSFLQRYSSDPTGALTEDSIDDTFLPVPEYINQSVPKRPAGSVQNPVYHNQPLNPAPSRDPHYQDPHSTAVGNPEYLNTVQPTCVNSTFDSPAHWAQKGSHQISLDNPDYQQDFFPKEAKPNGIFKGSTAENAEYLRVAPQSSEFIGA
Her2 exon 20 YVMA insertion (A775_G776ins YVMA), sequence (P04626 other isoform, or with tags, fused parts or gaps ins YVMA behind 775): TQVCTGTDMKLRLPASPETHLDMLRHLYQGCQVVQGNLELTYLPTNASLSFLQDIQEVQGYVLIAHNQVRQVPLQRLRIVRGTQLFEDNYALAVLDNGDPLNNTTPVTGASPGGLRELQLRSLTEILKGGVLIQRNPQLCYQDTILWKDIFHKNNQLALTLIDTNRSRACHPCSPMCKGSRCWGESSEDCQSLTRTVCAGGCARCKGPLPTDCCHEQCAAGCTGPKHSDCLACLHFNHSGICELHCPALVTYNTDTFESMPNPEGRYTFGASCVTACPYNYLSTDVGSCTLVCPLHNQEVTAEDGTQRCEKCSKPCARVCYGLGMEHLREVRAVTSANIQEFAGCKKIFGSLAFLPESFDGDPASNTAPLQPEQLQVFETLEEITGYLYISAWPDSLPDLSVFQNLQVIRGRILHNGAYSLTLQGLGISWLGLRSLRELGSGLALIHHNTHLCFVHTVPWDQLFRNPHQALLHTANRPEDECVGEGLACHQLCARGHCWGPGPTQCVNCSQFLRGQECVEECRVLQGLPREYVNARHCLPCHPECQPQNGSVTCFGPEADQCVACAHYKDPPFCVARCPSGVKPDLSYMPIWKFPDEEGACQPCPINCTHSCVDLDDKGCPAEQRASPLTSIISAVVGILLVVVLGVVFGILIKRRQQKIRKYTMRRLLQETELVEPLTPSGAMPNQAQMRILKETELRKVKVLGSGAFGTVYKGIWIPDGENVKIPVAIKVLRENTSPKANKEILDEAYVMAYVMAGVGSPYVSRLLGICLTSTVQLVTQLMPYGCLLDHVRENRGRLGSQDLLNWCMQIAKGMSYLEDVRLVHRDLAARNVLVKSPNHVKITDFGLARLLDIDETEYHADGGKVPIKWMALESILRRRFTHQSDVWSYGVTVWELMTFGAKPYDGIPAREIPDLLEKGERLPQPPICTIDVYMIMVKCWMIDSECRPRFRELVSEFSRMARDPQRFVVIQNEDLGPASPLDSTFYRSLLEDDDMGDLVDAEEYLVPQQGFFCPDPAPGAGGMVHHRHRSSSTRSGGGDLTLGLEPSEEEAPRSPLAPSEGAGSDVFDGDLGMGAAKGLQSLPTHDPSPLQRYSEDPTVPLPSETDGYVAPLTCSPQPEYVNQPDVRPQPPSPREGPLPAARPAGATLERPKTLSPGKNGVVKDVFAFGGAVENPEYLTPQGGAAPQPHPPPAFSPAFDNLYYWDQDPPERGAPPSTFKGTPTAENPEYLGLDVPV
human EGFR exon 20 insertion NPG (H773_V774insNPG), sequence (P00533 with tags, fused parts or gaps INS773NPG limits assumed): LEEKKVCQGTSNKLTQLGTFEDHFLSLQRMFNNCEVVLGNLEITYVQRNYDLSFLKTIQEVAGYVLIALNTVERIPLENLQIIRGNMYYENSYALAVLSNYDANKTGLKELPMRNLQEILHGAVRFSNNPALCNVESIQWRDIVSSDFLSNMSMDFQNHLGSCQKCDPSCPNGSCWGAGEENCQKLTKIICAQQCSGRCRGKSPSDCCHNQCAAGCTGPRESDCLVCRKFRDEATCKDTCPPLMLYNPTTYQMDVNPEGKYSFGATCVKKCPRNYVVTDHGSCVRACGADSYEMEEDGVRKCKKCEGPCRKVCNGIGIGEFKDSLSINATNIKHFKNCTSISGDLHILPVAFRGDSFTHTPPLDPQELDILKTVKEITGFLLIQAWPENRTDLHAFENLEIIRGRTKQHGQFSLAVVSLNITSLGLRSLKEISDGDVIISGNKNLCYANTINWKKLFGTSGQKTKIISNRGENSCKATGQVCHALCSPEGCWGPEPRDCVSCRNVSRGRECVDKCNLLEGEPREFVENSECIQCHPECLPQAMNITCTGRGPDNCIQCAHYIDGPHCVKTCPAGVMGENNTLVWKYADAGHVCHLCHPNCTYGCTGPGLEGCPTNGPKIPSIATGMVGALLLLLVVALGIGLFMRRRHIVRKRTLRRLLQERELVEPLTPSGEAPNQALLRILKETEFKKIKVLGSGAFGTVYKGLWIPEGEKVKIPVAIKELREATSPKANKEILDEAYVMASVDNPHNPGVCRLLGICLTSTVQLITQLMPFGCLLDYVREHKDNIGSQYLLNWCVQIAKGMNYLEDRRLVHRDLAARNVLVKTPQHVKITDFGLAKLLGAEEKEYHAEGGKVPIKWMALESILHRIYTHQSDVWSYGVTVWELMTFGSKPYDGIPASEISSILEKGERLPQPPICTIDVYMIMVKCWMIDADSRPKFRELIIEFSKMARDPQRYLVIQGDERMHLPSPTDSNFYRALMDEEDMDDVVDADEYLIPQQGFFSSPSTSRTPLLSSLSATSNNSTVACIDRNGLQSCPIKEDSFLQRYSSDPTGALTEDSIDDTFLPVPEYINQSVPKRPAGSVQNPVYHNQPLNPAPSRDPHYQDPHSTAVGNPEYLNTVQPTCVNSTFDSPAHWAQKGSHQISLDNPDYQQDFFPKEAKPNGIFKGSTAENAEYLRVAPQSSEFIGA

Row | Structure (SMILES) | IC50 [1] | IC50 [2] | IC50 [3] | IC50 [4] | EGFR exon 19 deletion and T790M mutation IC50 [2]
1 | C=CC(=O)Nc1cc(Nc2ncc(C(=O)OC(C)C)c(-n3ccc4ccccc43)n2)c(OC)cc1N(C)CCN(C)C [Example 15, isopropyl 2-((5-acrylamido-4-((2-(dimethylamino)ethyl)(methyl)amino)-2-methoxyphenyl)amino)-4-(1H-indol-1-yl)pyrimidine-5-carboxylate] | < 100 nM | < 100 nM | < 100 nM | < 100 nM | 
2 | C=CC(=O)Nc1cc(Nc2ncc(C(=O)OC)c(-c3cn(C)c4ccccc34)n2)c(OC)cc1N(C)CC1CCCN1C (stereo not drawn) [Example 16, methyl 2-((5-acrylamido-2-methoxy-4-(methyl((1-methylpyrrolidin-2-yl)methyl)amino)phenyl)amino)-4-(1-methyl-1H-indol-3-yl)pyrimidine-5-carboxylate] | < 100 nM | < 100 nM | 100 to 500 nM | < 100 nM | 
3 | C=CC(=O)Nc1ccc(OC)c(Nc2ncc(Cl)c(-c3cn(C)c4cc(OCCN5CCN(C)CC5)ccc34)n2)c1 [Example 18, N-(3-((5-chloro-4-(1-methyl-6-(2-(4-methylpiperazin-1-yl)ethoxy)-1H-indol-3-yl)pyrimidin-2-yl)amino)-4-methoxyphenyl)acrylamide] | 100 to 500 nM | < 100 nM | > 1000 nM | > 1000 nM | 
4 | C=CC(=O)Nc1ccc(OC)c(Nc2ncc(C#N)c(-c3cn(C)c4cc(OCCCN(C)C)ccc34)n2)c1 [Example 19, N-(3-((5-cyano-4-(6-(3-(dimethylamino)propoxy)-1-methyl-1H-indol-3-yl)pyrimidin-2-yl)amino)-4-methoxyphenyl)acrylamide] | < 100 nM | < 100 nM | 500 to 1000 nM | 100 to 500 nM | 
5 | C=CC(=O)Nc1ccc(OC)c(Nc2ncc(C#N)c(-c3cn(C)c4cc(OCCN5CCCC5)ccc34)n2)c1 [Example 20, N-(3-((5-cyano-4-(1-methyl-6-(2-(pyrrolidin-1-yl)ethoxy)-1H-indol-3-yl)pyrimidin-2-yl)amino)-4-methoxyphenyl)acrylamide] | < 100 nM | < 100 nM | 500 to 1000 nM | 100 to 500 nM | 
6 | C=CC(=O)Nc1ccc(OC)c(Nc2ncc(C#N)c(-c3cn(C)c4cc(OCC5CCCN5C)ccc34)n2)c1 (stereo not drawn) [Example 21, N-(3-((5-cyano-4-(1-methyl-6-((1-methylpyrrolidin-2-yl)methoxy)-1H-indol-3-yl)pyrimidin-2-yl)amino)-4-methoxyphenyl)acrylamide] | < 100 nM | < 100 nM | 500 to 1000 nM | 500 to 1000 nM | 
7 | C=CC(=O)Nc1ccc(OC)c(Nc2ncc(Cl)c(-c3c[nH]c4cc(OCCN5CCCC5)ccc34)n2)c1 [Example 22, N-(3-((5-chloro-4-(6-(2-(pyrrolidin-1-yl)ethoxy)-1H-indol-3-yl)pyrimidin-2-yl)amino)-4-methoxyphenyl)acrylamide] | < 100 nM | < 100 nM | 100 to 500 nM | 100 to 500 nM | 
8 | C=CC(=O)Nc1ccc(OC)c(Nc2ncc(C#N)c(-c3cn(C)c4cc(OCCC5CCCN5C)ccc34)n2)c1 (stereo not drawn) [Example 23, N-(3-((5-cyano-4-(1-methyl-6-(2-(1-methylpyrrolidin-2-yl)ethoxy)-1H-indol-3-yl)pyrimidin-2-yl)amino)-4-methoxyphenyl)acrylamide] | < 100 nM | < 100 nM | 500 to 1000 nM | 100 to 500 nM | 
9 | C=CC(=O)Nc1cc(Nc2ncc(C(=O)OCC(C)C)c(-c3cn(C)c4ccccc34)n2)c(OC)cc1N(C)CCN(C)C [Example 28, isobutyl 2-((5-acrylamido-4-((2-(dimethylamino)ethyl)(methyl)amino)-2-methoxyphenyl)amino)-4-(1-methyl-1H-indol-3-yl)pyrimidine-5-carboxylate] | < 100 nM | < 100 nM | 100 to 500 nM | < 100 nM | 
10 | C=CC(=O)Nc1cc(Nc2ncc(C(=O)OC(C)CC)c(-c3cn(C)c4ccccc34)n2)c(OC)cc1N(C)CCN(C)C (stereo not drawn) [Example 29, sec-butyl 2-((5-acrylamido-4-((2-(dimethylamino)ethyl)(methyl)amino)-2-methoxyphenyl)amino)-4-(1-methyl-1H-indol-3-yl)pyrimidine-5-carboxylate] | < 100 nM | < 100 nM | < 100 nM | < 100 nM | 
11 | C=CC(=O)Nc1cc(Nc2ncc(C(=O)OC(C)C)c(-c3cn(C)c4c(OC)cccc34)n2)c(OC)cc1N(C)CCN(C)C [Example 31, isopropyl 2-((5-acrylamido-4-((2-(dimethylamino)ethyl)(methyl)amino)-2-methoxyphenyl)amino)-4-(7-methoxy-1-methyl-1H-indol-3-yl)pyrimidine-5-carboxylate] | < 100 nM | < 100 nM | < 100 nM | < 100 nM | 
12 | C=CC(=O)Nc1cc(Nc2ncc(C(=O)OC(C)C)c(-c3cnn4ccccc34)n2)c(OC)cc1N(C)CCN(C)C [Example 32, isopropyl 2-((5-acrylamido-4-((2-(dimethylamino)ethyl)(methyl)amino)-2-methoxyphenyl)amino)-4-(pyrazolo[1,5-a]pyridin-3-yl)pyrimidine-5-carboxylate] | < 100 nM | < 100 nM | < 100 nM | < 100 nM | 
13 | C=CC(=O)Nc1cc(Nc2ncc(C(=O)O[C@@H]3CCOC3)c(-c3cn(C)c4ccccc34)n2)c(OC)cc1N(C)CCN(C)C [Example 37, (R)-tetrahydrofuran-3-yl 2-((5-acrylamido-4-((2-(dimethylamino)ethyl)-(methyl)amino)-2-methoxyphenyl)amino)-4-(1-methyl-1H-indol-3-yl)pyrimidine-5-carboxylate] | < 100 nM | < 100 nM | 100 to 500 nM | < 100 nM | 
14 | C=CC(=O)Nc1cc(Nc2ncc(C(=O)OCC#N)c(-c3cn(C)c4ccccc34)n2)c(OC)cc1N(C)CCN(C)C [Example 38, cyanomethyl 2-((5-acrylamido-4-((2-(dimethylamino)ethyl)(methyl)amino)-2-methoxyphenyl)amino)-4-(1-methyl-1H-indol-3-yl)pyrimidine-5-carboxylate] | < 100 nM | < 100 nM | < 100 nM | < 100 nM | 
15 | C=CC(=O)Nc1cc(Nc2ncc(NC(=O)C(C)C)c(-c3cn(C)c4ccccc34)n2)c(OC)cc1N(C)CCN(C)C [Example 39, N-(2-((2-(dimethylamino)ethyl)-(methyl)amino)-5-((5-isobutyramido-4-(1-methyl-1H-indol-3-yl)pyrimidin-2-yl)amino)-4-methoxyphenyl)-acrylamide] | < 100 nM | > 1000 nM | > 1000 nM | 100 to 500 nM | 
16 | C=CC(=O)Nc1cc(Nc2ncc(N(C)C(=O)C(C)C)c(-c3cn(C)c4ccccc34)n2)c(OC)cc1N(C)CCN(C)C [Example 40, N-(2-((2-(dimethylamino)ethyl)-(methyl)-amino)-4-methoxy-5-((4-(1-methyl-1H-indol-3-yl)-5-(N-methylisobutyramido)-pyrimidin-2-yl)amino)phenyl)acrylamide] | 100 to 500 nM |  | > 1000 nM | 100 to 500 nM | C (Group C compounds have an IC50 value for the indicated mutant between greater than about 500 to about 1 μM)
17 | C=CC(=O)Nc1cc(Nc2ncc(NC(=O)C(C)(C)C)c(-c3cn(C)c4ccccc34)n2)c(OC)cc1N(C)CCN(C)C [Example 41, N-(2-((2-(dimethylamino)ethyl)-(methyl)amino)-4-methoxy-5-((4-(1-methyl-1H-indol-3-yl)-5-pivalamidopyrimidin-2-yl)amino)phenyl)acrylamide] | 100 to 500 nM | > 1000 nM | > 1000 nM | 500 to 1000 nM | 
18 | C=CC(=O)Nc1cc(Nc2ncc(NC(=O)C(C)(C)C)c(-c3cn(C)c4ccccc34)n2)c(OC)cc1OC [Example 42, N-(2,4-dimethoxy-5-((4-(1-methyl-1H-indol-3-yl)-5-pivalamidopyrimidin-2-yl)amino)phenyl)acrylamide] | > 1000 nM | > 1000 nM | > 1000 nM | > 1000 nM | 
19 | C=CC(=O)Nc1cc(Nc2ncc(Cl)c(-c3cnn4ccccc34)n2)c(OC)cc1OCCN(C)C [Example 51, N-(5-((5-chloro-4-(pyrazolo[1,5-a]pyridin-3-yl)pyrimidin-2-yl)amino)-2-(2-(dimethylamino)ethoxy)-4-methoxyphenyl)acrylamide] | < 100 nM | < 100 nM | 100 to 500 nM | 100 to 500 nM | 
20 | C=CC(=O)Nc1cc(Nc2ncc(Cl)c(-c3cnn4ccccc34)n2)c(OC)cc1N1CCC(N(C)C)C1 (stereo not drawn) [Example 55, N-(5-((5-chloro-4-(pyrazolo[1,5-a]pyridin-3-yl)pyrimidin-2-yl)amino)-2-(3-(dimethylamino)pyrrolidin-1-yl)-4-methoxyphenyl)acrylamide] | 100 to 500 nM | < 100 nM | > 1000 nM | > 1000 nM | 
21 | C=CC(=O)Nc1cc(Nc2ncc(C(=O)OC(C)C)c(-c3nn(C)c4ccccc34)n2)c(OC)cc1N(C)CCN(C)C [Example 59, isopropyl 2-((5-acrylamido-4-((2-(dimethylamino)ethyl)(methyl)amino)-2-methoxyphenyl)amino)-4-(1-methyl-1H-indazol-3-yl)pyrimidine-5-carboxylate] | < 100 nM | < 100 nM | < 100 nM | < 100 nM | 
